# Assay results reported in US7862815B2, “Methods for inhibiting angiogenesis with inhibitors of proadrenomedullin N-terminal 20 peptide (PAMP)” (The United States of America as represented by the …, priority 2002, dated 2011).
# Experiments:
# athymic nude mice = experiment: DIVAA with angioreactors, Example 2 (peptides in matrigel); format: in vivo; settings: for concentration range at which angiogenesis begins: equimolar comparison, FIG. 4G
# Description: Analysis and quantitation of angiogenesis was done using DIVAA as previously described (Martinez et al., J. Natl. Cancer Inst., 21; 94(16):1226-37, 2002; Guedez et al., Am. J. Pathol. 162, 1431-1439, 2003). Briefly, 10 mm long surgical-grade silicone tubes with only one end open (angioreactors) were filled with 20 μl of matrigel alone or mixed with AM, bFGF, VEGF, PAMP, and/or PAMP(12-20) at the indicated concentrations. Human lung cancer cell lines (see below) were also premixed with matrigel alone or in combination with PAMP(12-20) at 10,000 cells per angioreactor. After the matrigel solidified, the angioreactors were implanted into the dorsal flanks of anesthetized athymic nude mice (NCI colony). After eleven days, the mice were injected intravenously with 25 mg/ml FITC-dextran (100 μl/mouse, Sigma) 20 minutes before removing the angioreactors. Photographs of the implants were taken for visual examination of angiogenic response. Quantitation of neovascularization in the angioreactors was determined as the amount of fluorescence trapped in the implants and was measured in a HP Spectrophotometer (Perkin Elmer).
# To further characterize this observation, an […] assay was employed that allows for more precise quantitation of angiogenic properties: the directed […] angiogenesis assay or DIVAA (Martinez et al., J. Natl. Cancer Inst., 21; 94(16): 1226-37, 2002; Guédez et al., Am. J. Pathol. 162, 1431-1439, 2003). The assay involves implanting small silicone capsules carrying the test substances under the skin of nude mice. After eleven days, the mice are injected with a specific amount of FITC-dextran, and the volume of blood circulating through the implant is quantified by measuring the fluorescence in the capsule. In addition, the new blood vessels growing into the silicone tube can be seen directly by transparency (FIG. 4A-F). […] The extent of the angiogenic response can be seen clearly when this response is compared with the negative control (FIG. 4A). The angiogenic response elicited by PAMP was dose-dependent (FIG. 4C-G). When compared to AM and VEGF responses at equimolar concentrations, a clear difference was observed.
# human endothelial cells = experiment: Real-time PCR quantification of gene expression; format: cell-based; settings: for expression of the AM/PAMP gene: addition of 10 nM peptide
# Description: Human endothelial cells were cultured in T-75 flasks at a density of 2.5×10^6 cells/well. After the cells were attached to the bottom of the plate, they were treated with 10 nM PAMP in serum-free medium for 24 hours. At the end of this exposure, the cells were washed once with PBS, scraped from the plate and their total RNA was extracted using the RNeasy Mini Kit from Qiagen and reverse transcribed using the SuperScript First-Strand Synthesis system (Invitrogen). Quantification of gene expression was performed by real-time PCR as described (Martinez et al., J. Endocrinol. 176, 95-102, 2003). The PCR reaction was run in an Opticon cycler (MJ Research) using Sybr Green PCR master mix (Applied Biosystems). Thermocycling was performed in a final volume of 25 μl containing 2 μl of cDNA (1:10 dilution) and 400 nM of primers (see below). All targets were amplified in triplicates in the same run as the house-keeping gene, using the following cycle scheme: after initial denaturation of the samples at 95° C. for 2 minutes, 46 cycles of 95° C. for 30 seconds, 60° C. for 30 seconds, and 72° C. for 30 seconds were performed.
# Fluorescence was measured in every cycle and mRNA levels were normalized by the 18S RNA values in all samples. A melting curve was run after PCR by increasing temperature from 50° C. to 96° C. (0.5° C. increments). A single peak was obtained for all amplicons, thus confirming the specificity of the reaction.
# [1] = tested on: aortic rings of 13 day-old chicken embryos; experiment: Chick embryo aortic arch assay; format: cell-based; settings: for sprouting of new vessels versus control: 1 nM peptide
# Description: The chick embryo aortic arch assay is an ex vivo angiogenesis assay that was performed as previously described (Isaacs, et al., J. Biol. Chem., 16; 277(33):29936-44, 2002; Auerbach et al., Clin. Chem. 49, 32-40, 2003). Briefly, aortic rings of approximately 0.8 mm in length were prepared from the five aortic arches of 13 day-old chicken embryos (Truslow Farms) and the soft connective tissue of the adventitia layer was carefully removed with tweezers. Each aortic ring was placed in the center of a well in a 48-well plate and covered with 10 μl matrigel (BD Biosciences). After the matrigel solidified, 300 μl of growth factor-free human endothelial-SFM basal growth medium (Invitrogen) containing the proper concentration of the test substances were added to each well. The plates were kept in a humid incubator at 37° C. in 5% CO2 for 24-36 hours. Microvessels sprouting from each aortic ring were photographed in an inverted microscope and the area covered by the newly formed capillaries was estimated by image analysis.
Substance,concentration range at which angiogenesis begins (athymic nude mice),expression of the AM/PAMP gene (human endothelial cells),sprouting of new vessels versus control [1],dose dependence of angiogenic response (athymic nude mice; FIG. 4C-G),concentrations eliciting an angiogenic response (athymic nude mice; implants 11 days under the skin of nude mice) [femtomols/L],"expression of PDGF A mRNA (human endothelial cells; 10 nM PAMP, 24 hours)","expression of PDGF B mRNA (human endothelial cells; 10 nM PAMP, 24 hours)","expression of PDGF C mRNA (human endothelial cells; 10 nM PAMP, 24 hours)","expression of VEGF mRNA (human endothelial cells; 10 nM PAMP, 24 hours)","expression of bFGF mRNA (human endothelial cells; 10 nM PAMP, 24 hours)","expression of AM gene mRNA (human endothelial cells; 10 nM PAMP, 24 hours, normalized by 18S RNA)","concentrations inducing increase of sprouting blood vessels over untreated controls ([1]; chick embryo aortic rings in matrigel, 24-36 hours) [nM]"
Adrenomedullin [AM],nanomolar concentrations,indistinguishable from the untreated controls,do not promote any significant proliferation over the control,,,,,,,,,
"proadrenomedullin N-terminal 20 peptide (ARLDVASEFRKKWNKWALSR; listed as Homo sapiens) [PAMP, 20 amino-acid molecule originating from the post-translational processing of pre-proadrenomedullin; synthetic human, purchased from Bachem]",femtomolar range,,larger than the control,dose-dependent,≥ 1,no significant modification,no significant modification,elevating the expression,elevating the expression,elevating the expression,about 50 % over basal levels,≥ 1
vascular endothelial growth factor [VEGF],nanomolar concentrations,indistinguishable from the untreated controls,do not promote any significant proliferation over the control,,,,,,,,,
